From publication PMC4584933, “Establishing the pig as a large animal model for vaccine development against human cancer” (Frontiers in Genetics, 2015)

Columns and labels:
SLA-1*07:02 = experiment: Peptide-MHC class I complex stability, scintillation proximity assay (SPA); design: species or system pig; settings: biotinylated recombinant SLA heavy chain, 125I-β2m, excess unlabeled β2m, read every 40 min, number only if t1/2 ≥ 0.5 h, '-' = not stably binding
Summary of the method: (§1)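 Biotinylated recombinant heavy chains captured on streptavidin scintillation plates with 125I-β2m and peptide; signal read every 40 min under dissociating conditions with excess unlabeled β2m. Signal duration gives complex half-life; ≥ 0.5 h counted as stable binder.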

SLA-1*04:01 = experiment: as above; design: species or system pig; settings: biotinylated recombinant SLA heavy chain, 125I-β2m, excess unlabeled β2m, read every 40 min, number only if t1/2 ≥ 0.5 h, '-' = not stably binding
Summary of the method: as §1

PBMCs = experiment: In vitro peptide stimulation of porcine PBMCs, IFN-γ release assay (ELISA); type: cell-based, pig; design: key to T cell response: “x” indicates that a response was found to this given peptide at least once; settings: PBMCs of immunized pigs, 2 × 10^5/well, 5 μg/ml peptide, 67.5–70.0 h, IFN-γ ELISA; response = 2-fold increase vs day -2 and at least 25 pg/ml IFN-γ, found at least once; SLA restriction not included
SLA-2*05:02 = experiment: Peptide-MHC class I complex stability, scintillation proximity assay (SPA); design: species or system pig; settings: biotinylated recombinant SLA heavy chain, 125I-β2m, excess unlabeled β2m, read every 40 min, number only if t1/2 ≥ 0.5 h, '-' = not stably binding
Summary of the method: as §1

SLA-2*04:01 = experiment: as above; design: species or system pig; settings: biotinylated recombinant SLA heavy chain, 125I-β2m, excess unlabeled β2m, read every 40 min, number only if t1/2 ≥ 0.5 h, '-' = not stably binding
Summary of the method: as §1

SLA-3*04:01 = experiment: as above; design: species or system pig; settings: biotinylated recombinant SLA heavy chain, 125I-β2m, excess unlabeled β2m, read every 40 min, number only if t1/2 ≥ 0.5 h, '-' = not stably binding
Summary of the method: as §1

[1] = Dissolving of 20mer peptides for immunization; type: physicochemical; settings: to 5 mM in milliQ water, N-methyl-2-pyrrolidone or 3% ammonia water
Method: Fifty-nine 20mer peptides with 10mer overlap covering the entire IDO and RhoC amino acid (aa) sequence were purchased from Genscript (New Jersey, U.S) or Pepscan Presto BV (Lelystad, the Netherlands). […] Peptides were dissolved to a concentration of 5 mM in milliQ water, N-methyl-2-pyrrolidone or 3% ammonia water in accordance with the supplier's recommendations, for further details see Supplementary Table 1.

Row | Substance | Binder (t1/2 ≥ 0.5 h): half-life of peptide-SLA-1*07:02 complex (SLA-1*07:02) | Binder (t1/2 ≥ 0.5 h): half-life of peptide-SLA-1*04:01 complex (SLA-1*04:01) | T cell response (PBMCs) | Binder (t1/2 ≥ 0.5 h): half-life of peptide-SLA-2*05:02 complex (SLA-2*05:02) | Binder (t1/2 ≥ 0.5 h): half-life of peptide-SLA-2*04:01 complex (SLA-2*04:01) | Binder (t1/2 ≥ 0.5 h): half-life of peptide-SLA-3*04:01 complex (SLA-3*04:01) | dissolving of peptide [1]
1 | ALWDTAGQEDY [RhoC1, porcine RhoC-derived 9-11mer peptide] | 0.9 h | 3.9 h | x | – | – | – | –
2 | EIAAASAIKVI [IDO16, porcine IDO-derived 9-11mer peptide] | – | 0.8 h | x | 12.5 h | – | – | –
3 | RLAHLVLGY [IDO104, porcine IDO-derived 9-11mer peptide] | 0.5 h | - (t1/2 (hours) is listed for each of the stably binding peptides (t1/2 ≥ 0.5 h)) | – | – | - (t1/2 (hours) is listed for each of the stably binding peptides (t1/2 ≥ 0.5 h)) | – | –
4 | MTYKNMDILF [IDO81, porcine IDO-derived 9-11mer peptide] | - (t1/2 (hours) is listed for each of the stably binding peptides (t1/2 ≥ 0.5 h)) | - (t1/2 (hours) is listed for each of the stably binding peptides (t1/2 ≥ 0.5 h)) | – | - (t1/2 (hours) is listed for each of the stably binding peptides (t1/2 ≥ 0.5 h)) | 4.2 h | - (t1/2 (hours) is listed for each of the stably binding peptides (t1/2 ≥ 0.5 h)) | –
5 | VLGYITMAY [IDO125, porcine IDO-derived 9-11mer peptide] | 1.0 h | - (t1/2 (hours) is listed for each of the stably binding peptides (t1/2 ≥ 0.5 h)) | – | – | 0.8 h | – | –
6 | IDO330−350: 20mer peptide of the overlapping IDO/RhoC library, omitted due to dissolving problems (EAYDACVKALVSLRSYHLQIV; UniProt P14902 330-350, looked up, fragment) | – | – | – | – | – | – | dissolving problems
7 | RTYMPPAHRNF [IDO113, porcine IDO-derived 9-11mer peptide] | – | 1.0 h | – | - (t1/2 (hours) is listed for each of the stably binding peptides (t1/2 ≥ 0.5 h)) | - (t1/2 (hours) is listed for each of the stably binding peptides (t1/2 ≥ 0.5 h)) | - (t1/2 (hours) is listed for each of the stably binding peptides (t1/2 ≥ 0.5 h)) | –
8 | KVLPRNIAIPY [IDO63, porcine IDO-derived 9-11mer peptide] | 0.7 h | - (t1/2 (hours) is listed for each of the stably binding peptides (t1/2 ≥ 0.5 h)) | x | – | – | - (t1/2 (hours) is listed for each of the stably binding peptides (t1/2 ≥ 0.5 h)) | –
9 | SLHKALEVF [IDO117, porcine IDO-derived 9-11mer peptide] | - (t1/2 (hours) is listed for each of the stably binding peptides (t1/2 ≥ 0.5 h)) | - (t1/2 (hours) is listed for each of the stably binding peptides (t1/2 ≥ 0.5 h)) | – | – | – | – | –
10 | MANRISAFGY [RhoC39, porcine RhoC-derived 9-11mer peptide] | 1.5 h | 0.7 h | x | – | 1.4 h | – | –
11 | CVQAMVSLRNY [IDO9, porcine IDO-derived 9-11mer peptide] | 3.1 h | - (t1/2 (hours) is listed for each of the stably binding peptides (t1/2 ≥ 0.5 h)) | – | – | – | – | –
12 | VLPRNIAIPY [IDO126, porcine IDO-derived 9-11mer peptide] | 0.7 h | - (t1/2 (hours) is listed for each of the stably binding peptides (t1/2 ≥ 0.5 h)) | x | – | – | – | –
13 | YPDTDVILMCF [RhoC59, porcine RhoC-derived 9-11mer peptide] | 0.8 h | 1.0 h | – | – | – | – | –
